Experimental data as given in patent US20240050428A1 (Cullgen (Shanghai), Inc., priority 2020, published 2024).
pIC50: −log10 of the molar value. Read-outs that look alike come from different tables or passages of the source.

Assays:
MOLM-13 cells = assay: Cell viability assay (CellTiter-Glo) in MOLM-13 cells, alone or with gilteritinib; type: cell-based; settings: Homo sapiens, MOLM-13, 72 h, MOLM-13 cells, three days, CellTiter-Glo
MV4;11 cells = assay: Cell viability assay (CellTiter-Glo) in MV4;11 cells, alone or with gilteritinib; type: cell-based; settings: Homo sapiens, MV4-11, 72 h, MV4;11 cells, three days, CellTiter-Glo, read-out: MV4
[1] = compound alone (without gilteritinib), read-out: MOLM-13 IC50
[2] = compound with gilteritinib 20 nM, read-out: MOLM-13 IC50 gilteritinib
[3] = compound alone (without gilteritinib), 11 IC50
[4] = compound with gilteritinib 10 nM, 11 IC50 gilteritinib

Compound | pIC50 (MOLM-13 cells; [1]) | pIC50 (MOLM-13 cells; [2]) | pIC50 (MV4;11 cells; [3]) | pIC50 (MV4;11 cells; [4])
O=C1CCC(N2C(=O)c3ccc(NC[C@H]4C[C@H](n5cc(-c6cccc(C7CNC7)n6)c(C6CC6)n5)C4)cc3C2=O)C(=O)N1 (stereo partly drawn) [GS-605, 5-(((trans-3-(4-(6-(Azetidin-3-yl)pyridin-2-yl)-3-cyclopropyl-1H-pyrazol-1-yl)cyclobutyl)methyl)amino)-2-(2,6-dioxopiperidin-3-yl)isoindoline-1,3-dione] | < 6.00 | < 6.00 | < 6.00 | < 6.00
CN(C)c1ccnc(-c2cn([C@H]3C[C@H](CNc4ccc5c(c4)C(=O)N(C4CCC(=O)NC4=O)C5=O)C3)nc2C2CC2)c1 (stereo partly drawn) [GS-606, 5-(((trans-3-(3-Cyclopropyl-4-(4-(dimethylamino)pyridin-2-yl)-1H-pyrazol-1-yl)cyclobutyl)methyl)amino)-2-(2,6-dioxopiperidin-3-yl)isoindoline-1,3-dione] | < 6.00 | < 6.00 | < 6.00 | < 6.00
O=C1CCC(N2C(=O)c3ccc(NC[C@H]4C[C@H](n5cc(-c6cc(N7CCNCC7)ccn6)c(C6CC6)n5)C4)cc3C2=O)C(=O)N1 (stereo partly drawn) [GS-607, 5-(((trans-3-(3-Cyclopropyl-4-(4-(piperazin-1-yl)pyridin-2-yl)-1H-pyrazol-1-yl)cyclobutyl)methyl)amino)-2-(2,6-dioxopiperidin-3-yl)isoindoline-1,3-dione] | < 6.00 | < 6.00 | < 6.00 | < 6.00
CN1CCN(c2ccnc(-c3cn([C@H]4C[C@H](CNc5ccc6c(c5)C(=O)N(C5CCC(=O)NC5=O)C6=O)C4)nc3C3CC3)c2)CC1 (stereo partly drawn) [GS-608, 5-(((trans-3-(3-Cyclopropyl-4-(4-(4-methylpiperazin-1-yl)pyridin-2-yl)-1H-pyrazol-1-yl)cyclobutyl)methyl)amino)-2-(2,6-dioxopiperidin-3-yl)isoindoline-1,3-dione] | < 6.00 | < 6.00 | < 6.00 | < 6.00
Cc1nc(-c2cn([C@H]3C[C@H](CNc4ccc5c(c4)C(=O)N(C4CCC(=O)NC4=O)C5=O)C3)nc2C2CC2)ccc1Cl (stereo partly drawn) [GS-609, 5-(((trans-3-(4-(5-Chloro-6-methylpyridin-2-yl)-3-cyclopropyl-1H-pyrazol-1-yl)cyclobutyl)methyl)amino)-2-(2,6-dioxopiperidin-3-yl)isoindoline-1,3-dione] | 7.00 to 8.00 | > 8.00 | 7.00 to 8.00 | > 8.00
O=C1CCC(N2C(=O)c3ccc(NC[C@H]4C[C@H](n5cc(-c6cnc7c(N8CC(O)C8)cccc7n6)c(C6CC6)n5)C4)cc3C2=O)C(=O)N1 (some centres unmarked) [GS-610] | > 8.00 | > 8.00 | > 8.00 | > 8.00
Cn1ncc2cnc(-c3cn([C@H]4C[C@H](CNc5ccc6c(c5)C(=O)N(C5CCC(=O)NC5=O)C6=O)C4)nc3C3CC3)cc21 (stereo partly drawn) [GS-613, 5-(((trans-3-(3-Cyclopropyl-4-(1-methyl-1H-pyrazolo[4,3-c]pyridin-6-yl)-1H-pyrazol-1-yl)cyclobutyl)methyl)amino)-2-(2,6-dioxopiperidin-3-yl)isoindoline-1,3-dione] | 7.00 to 8.00 | > 8.00 | > 8.00 | > 8.00
O=C1CCC(N2C(=O)c3ccc(NC[C@H]4C[C@H](n5cc(-c6ccc7c(n6)CCC7)c(C6CC6)n5)C4)cc3C2=O)C(=O)N1 (stereo partly drawn) [GS-616, 5-(((trans-3-(3-Cyclopropyl-4-(6,7-dihydro-5H-cyclopenta[b]pyridin-2-yl)-1H-pyrazol-1-yl)cyclobutyl)methyl)amino)-2-(2,6-dioxopiperidin-3-yl)isoindoline-1,3-dione] | 7.00 to 8.00 | > 8.00 | 7.00 to 8.00 | > 8.00
CN1CCC(Nc2cccnc2-c2cn([C@H]3C[C@H](CNc4ccc5c(c4)C(=O)N(C4CCC(=O)NC4=O)C5=O)C3)nc2C2CC2)CC1 (stereo partly drawn) [GS-617, 5-(((trans-3-(3-Cyclopropyl-4-(3-((1-methylpiperidin-4-yl)amino)pyridin-2-yl)-1H-pyrazol-1-yl)cyclobutyl)methyl)amino)-2-(2,6-dioxopiperidin-3-yl)isoindoline-1,3-dione] | < 6.00 | < 6.00 | < 6.00 | < 6.00
CN1CC(c2cccc(-c3cn([C@H]4C[C@H](CNc5ccc6c(c5)C(=O)N(C5CCC(=O)NC5=O)C6=O)C4)nc3C3CC3)n2)C1 (stereo partly drawn) [GS-619, 5-(((trans-3-(3-Cyclopropyl-4-(6-(1-methylazetidin-3-yl)pyridin-2-yl)-1H-pyrazol-1-yl)cyclobutyl)methyl)amino)-2-(2,6-dioxopiperidin-3-yl)isoindoline-1,3-dione] | < 6.00 | < 6.00 | < 6.00 | < 6.00
O=C1CCC(N2C(=O)c3ccc(NC[C@H]4C[C@H](n5cc(-c6cnc7c(C8CNC8)cccc7n6)c(C6CC6)n5)C4)cc3C2=O)C(=O)N1 (stereo partly drawn) [GS-624, 5-(((trans-3-(4-(5-(Azetidin-3-yl)quinoxalin-2-yl)-3-cyclopropyl-1H-pyrazol-1-yl)cyclobutyl)methyl)amino)-2-(2,6-dioxopiperidin-3-yl)isoindoline-1,3-dione] | < 6.00 | 7.00 to 8.00 | 6.00 to 7.00 | 7.00 to 8.00

Results, then the compound that gave them:

pIC50 (MOLM-13 cells; [1]) | pIC50 (MOLM-13 cells; [2]) | pIC50 (MV4;11 cells; [3]) | pIC50 (MV4;11 cells; [4]) | Compound
> 8.00 | > 8.00 | > 8.00 | > 8.00 | Cn1ncc2c(-c3cn([C@H]4C[C@H](CNc5ccc6c(c5)C(=O)N(C5CCC(=O)NC5=O)C6=O)C4)nc3C3CC3)nccc21 (stereo partly drawn) [GS-611, 5-(((trans-3-(3-Cyclopropyl-4-(1-methyl-1H-pyrazolo[4,3-c]pyridin-4-yl)-1H-pyrazol-1-yl)cyclobutyl)methyl)amino)-2-(2,6-dioxopiperidin-3-yl)isoindoline-1,3-dione]
> 8.00 | > 8.00 | > 8.00 | > 8.00 | CC(C)n1ncc2c(-c3cn([C@H]4C[C@H](CNc5ccc6c(c5)C(=O)N(C5CCC(=O)NC5=O)C6=O)C4)nc3C3CC3)nccc21 (stereo partly drawn) [GS-612, 5-(((trans-3-(3-Cyclopropyl-4-(1-isopropyl-1H-pyrazolo[4,3-c]pyridin-4-yl)-1H-pyrazol-1-yl)cyclobutyl)methyl)amino)-2-(2,6-dioxopiperidin-3-yl)isoindoline-1,3-dione]
7.00 to 8.00 | > 8.00 | > 8.00 | > 8.00 | CC(C)n1ncc2cnc(-c3cn([C@H]4C[C@H](CNc5ccc6c(c5)C(=O)N(C5CCC(=O)NC5=O)C6=O)C4)nc3C3CC3)cc21 (stereo partly drawn) [GS-614, 5-(((trans-3-(3-Cyclopropyl-4-(1-isopropyl-1H-pyrazolo[4,3-c]pyridin-6-yl)-1H-pyrazol-1-yl)cyclobutyl)methyl)amino)-2-(2,6-dioxopiperidin-3-yl)isoindoline-1,3-dione]
7.00 to 8.00 | > 8.00 | 7.00 to 8.00 | > 8.00 | Cn1ccc2c(-c3cn([C@H]4C[C@H](CNc5ccc6c(c5)C(=O)N(C5CCC(=O)NC5=O)C6=O)C4)nc3C3CC3)nccc21 (stereo partly drawn) [GS-615, 5-(((trans-3-(3-Cyclopropyl-4-(1-methyl-1H-pyrrolo[3,2-c]pyridin-4-yl)-1H-pyrazol-1-yl)cyclobutyl)methyl)amino)-2-(2,6-dioxopiperidin-3-yl)isoindoline-1,3-dione]
7.00 to 8.00 | > 8.00 | > 8.00 | > 8.00 | Cn1ccc2cnc(-c3cn([C@H]4C[C@H](CNc5ccc6c(c5)C(=O)N(C5CCC(=O)NC5=O)C6=O)C4)nc3C3CC3)cc21 (stereo partly drawn) [GS-618, 5-(((trans-3-(3-Cyclopropyl-4-(1-methyl-1H-pyrrolo[3,2-c]pyridin-6-yl)-1H-pyrazol-1-yl)cyclobutyl)methyl)amino)-2-(2,6-dioxopiperidin-3-yl)isoindoline-1,3-dione]
6.00 to 7.00 | > 8.00 | 7.00 to 8.00 | > 8.00 | CNc1cccnc1-c1cn([C@H]2C[C@H](CNc3ccc4c(c3)C(=O)N(C3CCC(=O)NC3=O)C4=O)C2)nc1C1CC1 (stereo partly drawn) [GS-620, 5-(((trans-3-(3-Cyclopropyl-4-(3-(methylamino)pyridin-2-yl)-1H-pyrazol-1-yl)cyclobutyl)methyl)amino)-2-(2,6-dioxopiperidin-3-yl)isoindoline-1,3-dione]
7.00 to 8.00 | > 8.00 | 7.00 to 8.00 | > 8.00 | CN(C)c1cccnc1-c1cn([C@H]2C[C@H](CNc3ccc4c(c3)C(=O)N(C3CCC(=O)NC3=O)C4=O)C2)nc1C1CC1 (stereo partly drawn) [GS-621, 5-(((trans-3-(3-Cyclopropyl-4-(3-(dimethylamino)pyridin-2-yl)-1H-pyrazol-1-yl)cyclobutyl)methyl)amino)-2-(2,6-dioxopiperidin-3-yl)isoindoline-1,3-dione]
7.00 to 8.00 | > 8.00 | 7.00 to 8.00 | > 8.00 | CC(C)n1ccc2cnc(-c3cn([C@H]4C[C@H](CNc5ccc6c(c5)C(=O)N(C5CCC(=O)NC5=O)C6=O)C4)nc3C3CC3)cc21 (stereo partly drawn) [GS-622, 5-(((trans-3-(3-Cyclopropyl-4-(1-isopropyl-1H-pyrrolo[3,2-c]pyridin-6-yl)-1H-pyrazol-1-yl)cyclobutyl)methyl)amino)-2-(2,6-dioxopiperidin-3-yl)isoindoline-1,3-dione]
7.00 to 8.00 | > 8.00 | 7.00 to 8.00 | > 8.00 | CC(C)n1ccc2c(-c3cn([C@H]4C[C@H](CNc5ccc6c(c5)C(=O)N(C5CCC(=O)NC5=O)C6=O)C4)nc3C3CC3)nccc21 (stereo partly drawn) [GS-623, 5-(((trans-3-(3-Cyclopropyl-4-(1-isopropyl-1H-pyrrolo[3,2-c]pyridin-4-yl)-1H-pyrazol-1-yl)cyclobutyl)methyl)amino)-2-(2,6-dioxopiperidin-3-yl)isoindoline-1,3-dione]
